The subject of data set [1] is P. yoelii liver stage parasites (liver schizonts). Nature of the data set: P. yoelii liver stage assay in HepG2 cells (EEF immunofluorescence). It counts as cell-based, Plasmodium yoelii. The note with it: for IC50: Plasmodium yoelii. How it is done: (§1) 7.5×10^3 HepG2 cells in 50 µl of medium (1.5×10^5 cells/ml) were seeded in 384 well plates (Aurora 384 IQ-EB Black/Clear Plates) 20–26 h prior to the actual infection. 2 h prior to infection, 50 nl of compound in DMSO (0.1% final DMSO concentration per well) were transferred with a PinTool (GNF Systems) into the assay plates (10 µM final concentration). P. yoelii sporozoites were freshly dissected from infected A. stephensi mosquito salivary glands and filtered twice with a 40-µm strainer. The HepG2 cells were then infected with 8×10^3 sporozoites per well. After infection and 1-h incubation at 37°C, the cultures were washed, new media and compound added, and further incubated with 5-fold increased concentration of penicillin/streptomycin for 48 h at 37°C before exoerythrocytic forms (EEFs) quantification of infected cells by immunofluorescence.
After washing with 1×PBS and fixation of the cells with 4% paraformaldehyde solution (EMS), membranes were permeabilised with 0.5% Triton-X-100 (Thermo Fisher Scientific) and EEFs were stained using a mouse polyclonal serum raised against the Plasmodium heat shock protein 70 (HSP70), an Alexa goat antimouse IgG, Fca-specific DyLight 649 secondary antibody (Invitrogen), and the Hoechst 33342 nucleic acid dye (Invitrogen). Stained EEFs were then quantified using the Opera Confocal High Content Screening system (PerkinElmer). Images were collected using a 20× magnification at a binning of 2 using a 365 Xeon arc lamp illumination to detect the nuclei and 635-nm laser line to excite DyLight649.
(§2) High-content imaging of infected HepG2-CD81 cells was performed as described in Meister et al.. Wells were analysed using a custom Acapella (PerkinElmer) script parameterized for this assay. In brief, images from fields inside the well were first discarded as out of focus when the intensity in the nuclear area was too low. Then hepatic cells were counted by detecting the nuclei labelled with Hoechst 33342 and parasites were segmented using the HSP70 immuno-labelling. Morphology-based (e.g., area, roundness) and intensity-based features were calculated for each object detected including the hepatocyte nuclei and the parasites. Parasitemia was set as the ratio between parasite number (Alexa fluor positive) and the hepatocyte nuclei count, determined at the same time.
(§3) When an infected mosquito bites a host, ∼100 sporozoites may be injected into the dermis from where they rapidly invade liver cells,[33]. This infective step represents the second bottleneck during transmission and therefore another potentially vulnerable point for intervention. In the absence of a practical liver stage assay measuring the formation of P. falciparum/P. vivax liver schizonts, an equivalent assay was developed in P. yoelii and used to assess the activity of the collection of molecules against this specific stage. Specifically, P. yoelii sporozoites were dissected from the salivary glands of infected mosquitoes and were allowed to invade human hepatocarcinoma cells expressing the CD81 protein. The development of the liver schizonts was monitored by immunofluorescence staining using an HSP70 antibody specific to the parasite (Figure 4A).
Figure 4 Validation and results of anti-infectives tested against P. yoelii liver stage parasites. (A) Opera-generated images from a time point experiment using a 20× objective lens. P. yoelii parasites (red) were visualized using a mouse polyclonal HSP70 antibody, and the HepG2 cells (green) were stained with Hoechst 33342 nucleic acid dye. […] (B) A dose response plot with atovaquone from data generated from the Opera imaging system. The median areas of compound-treated parasites were compared to untreated DMSO controls to determine the degree of inhibition.

A further data set deals with Plasmodium oocysts. The experiment in a line: Oocyst development / sporogony, Plasmodium species not stated at the place. Format: in vivo. Conditions: Plasmodium; 10 μM; box linked to oocysts; read-out: Inhibition at 10 μM (oocysts, Figure 5). Here is the method:
(§4) Membrane feeds were performed as described previously. Briefly, PbGFPcon-infected mouse blood was mixed with compounds, immediately placed into membrane feeders (39°C) and offered for 30 min to 80–100 overnight-starved A. stephensi (SDA 500 strain). After 7–9 d at 19°C/80%RH, mosquito midguts were dissected out. Midguts were fixed with paraformaldehyde and oocyst number was determined microscopically by semi-automated analysis as previously described.
Gametocyte cultures were produced according to the same protocol as the Pf exflagellation assay. Pooled gametocyte cultures were evenly divided between compounds in fresh medium and incubated at 37°C for 24 h. The parasite pellets were then resuspended in fresh RBCs and human serum treated with the compounds to a 50% haematocrit and immediately fed to mosquitoes as described above and then maintained at 27°C/60%RH for 10–12 d before dissection and counting. […]

Data set [2] concerns P. falciparum mature gametocytes / male gamete exflagellation. Nature of the data set: P. falciparum exflagellation assay. Format: cell-based, Plasmodium falciparum. Conditions: for effect on exflagellation (words): 10 µM, 24 h exposure of mature gametocytes; for inhibition at 10 µM: Plasmodium falciparum. How it is done:
After 24 h, exflagellation was triggered by a temperature decrease to ∼21°C and observed 20 min later under the microscope. Highly motile exflagellation centres were recorded for ∼50–150 adjacent fields of view and reported per 10,000 RBCs.
(§5) (A) Assays examined exflagellation (P. falciparum), ookinete formation (P. berghei), or oocyst formation (P. falciparum). All antimalarials were screened at 10 µM. (B) The biological content of the in vitro P. berghei ookinete assay spans gamete formation, fertilization, zygote development, and ookinete formation. […] (D) The in vitro P. falciparum exflagellation assay exposes mature gametocytes to antimalarials for 24 h before triggering exflagellation. […] All experiments in triplicate. (E) The in vivo P. falciparum oocyst assay differs from the P. berghei oocyst assay in that mature gametocytes were exposed to the antimalarials in culture for 24 h before feeding to mosquitoes.

For another data set, the system named is HepG2 cells. Nature of the data set: Growth retardation of HepG2 cells. Conditions: for IC50: Homo sapiens, HepG2, read-out: IC50 HepG2; for CI (cytotoxicity index): IC50 HepG2 compared to IC50 parasite. Here is the method:
as §1, §2, §3

Data set [3] deals with P. berghei ookinete formation. Nature of the data set: P. berghei ookinete development assay. It counts as cell-based, Plasmodium berghei. Conditions: for effect on ookinete formation: 10 µM; for IC50 / inhibition at 10 µM: Plasmodium berghei; for IC50: read-out: IC50 ookinete formation; for inhibition at 10 µM: read-out: Inhibition at 10 μM (ookinete, Figure 5). How it is done: Compounds and P. berghei gametocyte-infected blood were dispensed in a 96-well plate containing ookinete medium. After 24 h at 19°C, Giemsa-stained ookinetes were counted under the microscope (×40) as previously described,[28].
as §5, with “Figure 3 The transmission-blocking potential of selected antimalarials in three bioassays that cover different phases of Plasmodium vector stage development. (A)” for “(A)”, “formation. Ookinete formation was insensitive to most of the antimalarials tested.” for “formation.”, “mosquitoes. […] NPC1161-B, lumefantrine, halofantrine, and mefloquine +RS isomer were also active. (n = 4–61 observations; average ± standard error of the mean [SEM]).” for “mosquitoes.”

Data set [4] concerns P. berghei oocyst formation. Nature of the data set: Standard membrane feed assay, P. berghei oocysts in A. stephensi. Conditions: 10 µM. Format: in vivo, Plasmodium berghei. Here is the method:
as §4
Supplementary file pmed.1001169.s001.tif: Figure S1 The transmission-blocking potential of selected compounds against P. berghei in standard membrane feeding assays. All antimalarials were screened at 10 µM in triplicate in independent experiments. The biological content of this assay spans gamete formation through to occyst development all within the gut of the mosquito. […] (TIF) Click here for additional data file.

The test system of data set [5] is P. falciparum asexual blood stage parasites (strains NF54, D6, K1, W2, 7G8, TM90C2A, V1/S). The experiment in a line: [3H]-hypoxanthine incorporation growth inhibition assay, asexual blood stage. Format: cell-based, Plasmodium falciparum. The note with it: Plasmodium falciparum. How it is done: In vitro antimalarial activity was measured using the [^3H]-hypoxanthine incorporation assay with various strains of P. falciparum obtained from MR4. Results were expressed as the concentration resulting in 50% inhibition (IC50).
The half-maximal inhibitory concentrations (IC50) were determined for each molecule (Table S2).
Figure 2 The potencies of selected antimalarials against asexual blood stages. Main classes of antimalarials were tested against the blood stage of seven Plasmodium falciparum strains in the [^3H]hypoxanthine incorporation assay as described in Vennerstrom et al.. The strains tested here (obtained from MR4) were two drug-sensitive strains NF54 and D6 and five drug-resistant strains: K1, resistant to chloroquine (CQ) and pyrimethamine (PYR), origin Thailand, carries mutations in genes pfmdr1, pfcrt, pfdhfr, pfdhps; W2, resistant to CQ, PYR, quinine, cycloguanil, and sulfadoxine, origin Vietnam; 7G8, resistant to CQ and PYR, origin Brazil; TM90C2A, resistant to CQ, PYR, and MFQ, origin Thailand; and V1/S, resistant to CQ, PYR and cycloguanil, origin Vietnam. Results are expressed as the concentration resulting in 50% growth inhibition (IC50).Values are means of ≥3 independent experiments. (A) Endoperoxides. (B) 4-AQs. (C) 8-AQs and amino alcohols. (D) Antifolates, antibiotics, and others.

Where [6] appears, read: read-out: Inhibition at 10 μM (gametocytes/exflagellation, Figure 5).
The mark [7] stands for this setting: HepG2, read-out: IC50 (liver schizont, Figure 5).
[8] abbreviates: HepG2, read-out: IC50 liver stage.

Data on seven molecules can be found in article PMC3283556, “The Activities of Current Antimalarial Drugs on the Life Cycle Stages of Plasmodium: A Comparative Study with Human and Rodent Parasites” (PLoS Medicine, 2012).

“Also recorded” adds a separate entry of the source. Read-outs that look alike come from different tables or passages of the source.

For the molecule `C[C@H]1[C@@H](O)O[C@@H]2O[C@@]3(C)CC[C@H]4[C@H](C)CC[C@@H]1[C@@]24OO3` [DHA, dihydroartemisinin], in data set [1] (HepG2, box linked to liver schizont, read-out: IC50 (liver schizont, Figure 5)), the IC50 is below 1000 nM. Further, the inhibition at 10 µM in the data set with Plasmodium oocysts is above 90%.
`CC(C)(N)CNC(=O)C[C@H]1CC[C@]2(CC1)OO[C@]1(O2)C2CC3CC(C2)CC1C3` [OZ277]: in data set [2], the “effect on exflagellation (words)” value is “inhibited exflagellation totally”. Besides, the inhibition at 10 µM in data set [2] (10 μM, box linked to gametocytes/exflagellation, read-out: Inhibition at 10 μM (gametocytes/exflagellation, Figure 5)) was above 60%; with Plasmodium oocysts it was above 90%. For the same molecule, the IC50 was 1690 ± 1220 nM in data set [1] (HepG2, development of P. yoelii liver schizonts following infection of HepG2 cells, read-out: IC50 Parasite) and 7400 ± 5130 nM in the data set on HepG2 cells. Further, the “CI (cytotoxicity index)” value in the data set on HepG2 cells was 4.38.
On to `CCCCC[C@@H]1CN[C@H](C(=O)N[C@@H]([C@H]2O[C@H](SC)[C@H](O)[C@@H](O)[C@H]2O)[C@H](C)Cl)C1` [cis-mirincamycin], for which the “effect on ookinete formation” value in data set [3] is “enhancement of ookinete formation that was not statistically significant”.
Regarding `C[C@@H]1C[C@@H]([C@H](O)CC2CC(=O)NC(=O)C2)C(=O)[C@@H](C)C1` [cycloheximide], the “effect on exflagellation (words)” value in data set [2] is “inhibited exflagellation totally; also recorded: Inhibition of exflagellation”. For the same molecule, the inhibition at 10 µM in data set [2] (setting [6]) was above 60%; in data set [3], above 80%. The “effect on ookinete formation” value in data set [3] is “strongly inhibited ookinete formation”. For the same molecule, the IC50 is 25 nM in data set [3]; below 1000 nM in data set [1] (setting [7]); 150 ± 10 nM in data set [1] (HepG2, read-out: IC50 Parasite); below 200 nM in data set [1] (setting [8]); 920 ± 290 nM with HepG2 cells. In addition, in data set [4], the “transmission-blocking effect on P. berghei oocysts (words)” value was “most notable transmission-blocking activity”. Further, the “effect on growth of HepG2-CD81 cells” value in the data set with HepG2 cells is “retarded the growth of HepG2-CD81 cells”. For the same molecule, in the data set on HepG2 cells, the “CI (cytotoxicity index)” value was 6.13.
As to `O=CN(O)CCCP(=O)(O)O` [fosmidomycin], the “effect on ookinete formation” value in data set [3] is “enhancement of ookinete formation that was not statistically significant”.
Turning to `COc1cc(C)c2c(Oc3cccc(C(F)(F)F)c3)c(OC)cc(NC(C)CCCN)c2n1` (centres unmarked) [tafenoquine], the 50% inhibitory concentration (IC50) is around 50 nM in data set [5] (strain 7G8) and around 500 nM in data set [5] (strain NF54). In data set [3], the “effect on ookinete formation” value is listed as “enhancement of ookinete formation that was not statistically significant”.
As to `C=C(NC(=O)C(=C)NC(=O)c1csc(C2=N[C@@H]3c4csc(n4)[C@H]4NC(=O)c5csc(n5)[C@H]([C@](C)(O)[C@@H](C)O)NC(=O)[C@H]5CSC(=N5)/C(=C/C)NC(=O)[C@H]([C@@H](C)O)NC(=O)c5csc(n5)[C@]3(CC2)NC(=O)[C@H](C)NC(=O)C(=C)NC(=O)[C@H](C)NC(=O)[C@H]([C@@H](C)CC)N[C@@H]2C=Cc3c([C@H](C)O)cc(nc3[C@H]2O)C(=O)O[C@@H]4C)n1)C(N)=O` [thiostrepton], the “effect on exflagellation (words)” value in data set [2] is on record as “Inhibition of exflagellation”. The inhibition at 10 µM was above 80% in data set [2] (24 h, read-out: inhibition of exflagellation); above 60% in data set [2] (setting [6]); above 80% in data set [3]. Besides, the “effect on ookinete formation” value in data set [3] is on record as “strongly inhibited ookinete formation”. Besides, the half-inhibitory concentration (IC50) in data set [3] is 8000 nM; in data set [1] (setting [7]), below 1000 nM; in data set [1] (HepG2, read-out: IC50 Parasite) it was 180 ± 50 nM; in data set [1] (setting [8]) it was below 200 nM; in the data set on HepG2 cells, 180 ± 20 nM. The “potency range against liver stages” value in data set [1] (dose response) is given as “submicromolar potencies”. For the same molecule, the “effect on growth of HepG2-CD81 cells” value in the data set with HepG2 cells is given as “retarded the growth of HepG2-CD81 cells”. For the same molecule, the “CI (cytotoxicity index)” value in the data set with HepG2 cells amounted to 1.0.

As usually defined, the IC50 is the concentration needed to halve the response being measured.
